In patent US20230150953A1, “SUBSTITUTED ISOPHTHALIC ACID DIAMIDES” (Bayer Aktiengesellschaft, priority 2020, published 2023):

Tests used:
Type in all cases: in vivo
[1] = tested on: AMARE Amaranthus retroflexus; assay: Post-emergence herbicidal action against harmful plants; conditions: one-leaf stage, assessed visually after about 3 weeks vs untreated controls
Description: (§1) The abbreviations used for the harmful plants mean: • ABUTH Abutilon theophrasti ALOMY Alopecurus myosuroides • AVEFA Avena fatua AMARE Amaranthus retroflexus • CYPES Cyperus esculentus DIGSA Digitaria sanguinalis • ECHCG Echinochloa crus-galli HORMU Hordeum murinum • LOLMU Lolium multiflorum LOLRI Lolium rigidum • MATIN Matricaria inodora PHBPU Pharbitis purpurea • POLCO Polygonum convolvulus SETVI Setaria viridis • STEME Stellaria media VERPE Veronica persica • VIOTR Viola tricolor 2. Post-Emergence Herbicidal Action Against Harmful Plants Seeds of monocotyledonous and dicotyledonous weed and crop plants are laid out in sandy loam soil in wood-fiber pots, covered with soil and cultivated in a greenhouse under good growth conditions. 2 to 3 weeks after sowing, the test plants are treated at the one-leaf stage. The compounds of the invention, formulated in the form of wettable powders (WP) or as emulsion concentrates (EC), are then sprayed onto the green parts of the plants in the form of an aqueous suspension or emulsion at a water application rate equivalent to 600 to 800 l/ha, with addition of 0.2% wetting agent. After the test plants have been left to stand in the greenhouse under optimal growth conditions for about 3 weeks, the action of the preparations is assessed visually in comparison to untreated controls (herbicidal action in percent (%): 100% activity=the plants have died, 0% activity=like control plants). […] The tables below illustrate, in an illustrative manner, the post-emergence herbicidal action of the compounds of the invention, the herbicidal activity being stated in percent.

[2] = tested on: PHBPU Pharbitis purpurea; assay: as above; conditions: one-leaf stage, assessed visually after about 3 weeks vs untreated controls
Description: as §1

[3] = tested on: DIGSA Digitaria sanguinalis; assay: Pre-emergence herbicidal action against harmful plants; conditions: scored visually after 3 weeks vs untreated controls
Description: (§2) The abbreviations used for the harmful plants mean: • ABUTH Abutilon theophrasti ALOMY Alopecurus myosuroides • AVEFA Avena fatua AMARE Amaranthus retroflexus • CYPES Cyperus esculentus DIGSA Digitaria sanguinalis • ECHCG Echinochloa crus-galli HORMU Hordeum murinum • LOLMU Lolium multiflorum LOLRI Lolium rigidum • MATIN Matricaria inodora PHBPU Pharbitis purpurea • POLCO Polygonum convolvulus SETVI Setaria viridis • STEME Stellaria media VERPE Veronica persica • VIOTR Viola tricolor 1. Pre-Emergence Herbicidal Action Against Harmful Plants Seeds of monocotyledonous and dicotyledonous weed plants and crop plants are laid out in sandy loam soil in wood-fiber pots and covered with soil. The compounds of the invention, formulated in the form of wettable powders (WP) or as emulsion concentrates (EC), are then applied to the surface of the covering soil in the form of an aqueous suspension or emulsion at a water application rate equivalent to 600 to 800 l/ha, with addition of 0.2% wetting agent. After the treatment, the pots are placed in a greenhouse and kept under good growth conditions for the trial plants. The damage to the test plants is scored visually after a test period of 3 weeks by comparison with untreated controls (herbicidal activity in percent (%): 100% activity=the plants have died, 0% activity=like control plants). […] The tables below illustrate, in an illustrative manner, the post-emergence herbicidal action of the compounds of the invention, the herbicidal activity being stated in percent.

[4] = tested on: SETVI Setaria viridis; assay: as above; conditions: scored visually after 3 weeks vs untreated controls
Description: as §2

[5] = tested on: AMARE Amaranthus retroflexus; assay: as above; conditions: scored visually after 3 weeks vs untreated controls
Description: as §2

[6] = tested on: PHBPU Pharbitis purpurea; assay: as above; conditions: scored visually after 3 weeks vs untreated controls
Description: as §2

[7] = tested on: MATIN Matricaria inodora; assay: as above; conditions: scored visually after 3 weeks vs untreated controls
Description: as §2

[8] = tested on: ALOMY Alopecurus myosuroides; assay: as above; conditions: 80 g/ha, scored visually after 3 weeks vs untreated controls
Description: as §2

[9] = tested on: ABUTH Abutilon theophrasti; assay: as above; conditions: scored visually after 3 weeks vs untreated controls
Description: as §2

[10] = tested on: ECHCG Echinochloa crus-galli; assay: as above; conditions: scored visually after 3 weeks vs untreated controls
Description: as §2

[11] = tested on: POLCO Polygonum convolvulus; assay: as above; conditions: scored visually after 3 weeks vs untreated controls
Description: as §2

[12] = tested on: LOLRI Lolium rigidum; assay: as above; conditions: scored visually after 3 weeks vs untreated controls
Description: as §2

[13] = tested on: DIGSA Digitaria sanguinalis; assay: Post-emergence herbicidal action against harmful plants; conditions: one-leaf stage, assessed visually after about 3 weeks vs untreated controls
Description: as §1

[14] = tested on: ECHCG Echinochloa crus-galli; assay: as above; conditions: 20 g/ha, one-leaf stage, assessed visually after about 3 weeks vs untreated controls
Description: as §1

SMILES | Post-emergence action at 5 g/ha against AMARE in % [1] [%] | Post-emergence action at 20 g/ha against AMARE in % [1] [%] | Post-emergence action at 20 g/ha against PHBPU in % [2] [%] | Pre-emergence action at 20 g/ha against DIGSA in % [3] [%] | Pre-emergence action at 80 g/ha against DIGSA in % [3] [%] | Pre-emergence action at 80 g/ha against SETVI in % [4] [%] | Pre-emergence action at 20 g/ha against AMARE in % [5] [%] | Pre-emergence action at 80 g/ha against AMARE in % [5] [%] | Pre-emergence action at 80 g/ha against PHBPU in % [6] [%] | Pre-emergence action at 80 g/ha against MATIN in % [7] [%] | Pre-emergence action at 80 g/ha against ALOMY in % [8] [%] | Pre-emergence action at 80 g/ha against ABUTH in % [9] [%] | Pre-emergence action at 80 g/ha against ECHCG in % [10] [%] | Pre-emergence action at 80 g/ha against POLCO in % [11] [%] | Pre-emergence action at 80 g/ha against LOLRI in % [12] [%] | Post-emergence action at 20 g/ha against ECHCG in % [14] [%] | Pre-emergence action at 20 g/ha against MATIN in % [7] [%] | Pre-emergence action at 20 g/ha against POLCO in % [11] [%] | further results
CCNC(=O)c1c(C(F)(F)F)cc(F)c(C(=O)Nc2nnnn2C)c1C [Example 1-93] | 90 | 90 | 90 | 80 | 100 | 80 | 100 | 100 | 90 | 90 | 80 | 100 | 90 | 80 | 80 | – | – | – | Post-emergence action at 5 g/ha against PHBPU in % ([2]; 5 g/ha): 80%; Pre-emergence action at 20 g/ha against ABUTH in % [9]: 100%
Cc1c(C(=O)Nc2nnnn2C)c(F)cc(C(F)(F)F)c1C(=O)N(C)C [Example 1-95] | – | 90 | – | 80 | 90 | 100 | 90 | 100 | – | 90 | 90 | – | – | 80 | – | – | – | – | Pre-emergence action at 20 g/ha against SETVI in % ([4]; 20 g/ha): 100%
CCN(C)C(=O)c1c(C(F)(F)F)cc(F)c(C(=O)Nc2nnnn2C)c1C [Example 1-96] | 80 | 90 | – | – | 100 | 100 | – | 100 | – | 100 | 80 | 100 | 80 | – | – | 80 | 80 | – | Post-emergence action at 20 g/ha against DIGSA in % [13]: 90%
Cc1c(C(=O)Nc2nnnn2C)c(F)cc(C(F)(F)F)c1C(=O)NCC(F)F [Example 1-385, N^1-(2,2-difluoroethyl)-4-fluoro-2-methyl-N^3-(1-methyl-1H-tetrazol-5-yl)-6-(trifluoromethyl)isophthalamide] | 90 | 90 | – | 80 | 100 | 90 | 90 | 100 | 80 | 90 | 90 | 80 | – | – | – | – | – | – | –
CCNC(=O)c1c(C(F)(F)F)cc(OC)c(C(=O)Nc2nnnn2C)c1Cl [Example 1-388] | – | 80 | – | – | – | – | – | – | – | – | – | – | – | – | – | – | – | – | –
CCn1nnnc1NC(=O)c1c(F)cc(C(F)(F)F)c(C(=O)NC)c1C [Example 2-92] | 90 | 90 | 80 | 80 | 100 | – | 100 | 100 | 80 | 90 | – | 80 | – | 90 | 90 | 80 | 90 | 80 | –
CCNC(=O)c1c(C(F)(F)F)cc(F)c(C(=O)Nc2nnnn2CC)c1C [Example 2-93, N^1-ethyl-N^3-(1-ethyl-1H-tetrazol-5-yl)-4-fluoro-2-methyl-6-(trifluoromethyl)isophthalamide] | 80 | 90 | 90 | – | 100 | 80 | 100 | 100 | 90 | 90 | 90 | 100 | 80 | – | – | – | 80 | – | Pre-emergence action at 20 g/ha against PHBPU in % ([6]; 20 g/ha): 80%
CCn1nnnc1NC(=O)c1c(F)cc(C(F)(F)F)c(C(=O)N(C)C)c1C [Example 2-95, N′-(1-ethyl-1H-tetrazol-5-yl)-4-fluoro-N,N,2-trimethyl-6-(trifluoromethyl)isophthalamide] | – | – | 80 | 90 | 100 | 90 | – | 100 | – | 90 | 90 | 100 | 80 | 100 | 80 | – | – | 80 | –
CCn1nnnc1NC(=O)c1c(F)cc(C(F)(F)F)c(C(=O)NCC2CC2)c1C [Example 2-384] | 90 | 90 | – | 80 | 100 | 80 | 100 | 100 | 80 | 100 | 80 | 100 | 80 | 100 | – | 80 | – | 90 | Pre-emergence action at 20 g/ha against ABUTH in % [9]: 90%
CCn1nnnc1NC(=O)c1c(F)cc(C(F)(F)F)c(C(=O)NCC#N)c1C [Example 2-386] | – | – | – | – | – | – | – | 100 | – | 80 | – | – | – | 80 | – | – | – | – | –
